Legend:
[1] = test system: MC3T3-E1 osteoblasts; assay: Stimulation of alkaline phosphatase (ALP) activity as a marker of bone forming activity; type: cell-based; details: 0.5 μM and 1.5 μM, 4 days; ASC+b-GP as positive control
Method: Cells were treated with 0.5 μM and 1.5 μM concentrations of 1-Methyleffusol for 4 days and the alkaline phosphatase (ALP) activity, as a marker of bone forming activity, was measured. Ascorbate and beta-glycerophosphate treatment (ASC+b-GP) was performed as positive control for ALP induction.

[2] = test system: bone forming activities; details: prior studies (U.S. application Ser. No. 17/713,384; Chinese Application No. 202210551690.4); cited from earlier work
[3] = test system: MC3T3-E1 osteoblasts; assay: Promotion of osteoblast mineralization: calcium deposition by Alizarin Red staining; type: cell-based; details: 1.5 or 5 mM in osteoblast mineralization medium (OM), 14 days
Method: Cells were treated with 1-Methyleffusol (1.5 or 5 mM) in osteoblast mineralization medium (OM) for 14 days, and the calcium deposition in the cell layer was measured by Alizarin Red staining (images not shown).

## C=Cc1cc(O)c(C)c2c1-c1ccc(O)c(C)c1CC2 [1-Methyleffusol, 1,8-dimethyl-4-vinyl-9,10-dihydrophenanthrene-2,7-diol]
[1]
  alkaline phosphatase (ALP) activity: stimulate ALP activity
[2]
  stimulation of bone forming activities: exhibited the ability for stimulation of bone forming activities
[3]
  mineralization (calcium deposition in the cell layer, Alizarin Red staining): promoted mineralization

From patent publication US20260159465A1, “METHODS OF MAKING AND USING 1-METHYLEFFUSOL” (Laboratory for Synthetic Chemistry and Chemical Biology …, priority 2024, published 2026)
